Assays:
DesIV = molecular target: T1, DesIV (Streptomyces venezuelae, UniProt Q9ZGH3); experiment: HPLC, UV […] nm; assay type: biochemical; conditions: 1 mM TDP-D-glucose, 1 mM NAD+, 8 μM DesIV, 100 mM phosphate pH 8.0, 1 mM DTT, 5% glycerol, 25 °C
T1 construct: recombinant from E. coli (pET28/pET21-type vectors)
T1 sequence (Q9ZGH3 1-337): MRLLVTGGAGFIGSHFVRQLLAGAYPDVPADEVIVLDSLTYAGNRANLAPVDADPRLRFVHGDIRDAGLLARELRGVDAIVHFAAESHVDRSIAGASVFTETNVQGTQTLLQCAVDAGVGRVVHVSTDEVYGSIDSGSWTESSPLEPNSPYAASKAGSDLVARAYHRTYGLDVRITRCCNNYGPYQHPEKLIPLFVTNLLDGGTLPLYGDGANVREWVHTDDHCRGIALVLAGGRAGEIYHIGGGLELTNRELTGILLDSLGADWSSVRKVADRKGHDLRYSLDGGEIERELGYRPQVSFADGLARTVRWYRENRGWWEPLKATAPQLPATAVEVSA

EryBV = EryBV (Saccharopolyspora erythraea, UniProt O33939); conditions: BL21(DE3)/pHL71/pHL50, 100 mg/l 6dEB, 10 μM IPTG, 20 °C, 72 h; TDP-L-mycarose made in the cell
EryCII/EryCIII = EryCII/EryCIII (Saccharopolyspora erythraea, UniProt A4F7P3); conditions: BL21(DE3)/pHL50, 100 mg/l αMEB, 10 μM IPTG, 20 °C, 72 h; TDP-D-desosamine made in the cell

Structure (SMILES) | HPLC, UV 264 nm (DesIV) | further results
Cc1cn([C@H]2C[C@H](O)[C@@H](COP(=O)(O)OP(=O)(O)O[C@H]3O[C@H](C)C(=O)[C@H](O)[C@H]3O)O2)c(=O)[nH]c1=O [B, TDP-4-keto-6-deoxy-D-glucose] | Conversion of TDP-Glucose to TDP-4-Keto-6-Deoxy-Glucose by DesIV | –
Cc1cn([C@H]2C[C@H](O)[C@@H](COP(=O)(O)OP(=O)(O)O[C@H]3O[C@H](CO)[C@@H](O)[C@H](O)[C@H]3O)O2)c(=O)[nH]c1=O [A, TDP-D-glucose] | Conversion of TDP-Glucose to TDP-4-Keto-6-Deoxy-Glucose by DesIV | –
CC[C@H]1OC(=O)[C@H](C)[C@@H](O)[C@H](C)[C@@H](O)[C@@H](C)C[C@@H](C)C(=O)[C@H](C)[C@@H](O)[C@H]1C [6dEB] | – | whole-cell conversion to 6-deoxyerythromycin D (with EryCII/EryCIII), B. subtili (EryBV): EryBV, which ordinarily transfers the mycarose sugar onto erythronolide B, is also capable of recognizing 6dEB
CC[C@H]1OC(=O)[C@H](C)[C@@H](O[C@H]2C[C@@](C)(O)[C@@H](O)[C@H](C)O2)[C@H](C)[C@@H](O)[C@](C)(O)C[C@@H](C)C(=O)[C@H](C)[C@@H](O)[C@H]1C [L, αMEB] | – | % conversion (EryCII/EryCIII): ~ 25%
